Source: US20240366612A1, “COMPOUNDS AND METHODS FOR MODULATING NUCLEIC ACID SPLICING” (REMIX THERAPEUTICS INC., priority 2021, published 2024)
Counter-ions that a name gives are not always drawn.

Key:
HTT CJ mRNA = test: Gene panel canonical junction qPCR assay, HTT; type: cell-based; settings: Homo sapiens, larger gene panel, read-out: HTT IC50 (decrease in CJ mRNA levels)
Outline: (§1)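 A673 or K562 cells treated 24 h with 11-point 3-fold dilutions (top 10 µM, ≤0.25% DMSO) at 37 °C. Canonical exon-junction mRNA measured by probe-based RT-qPCR, normalized to GAPDH, GUSB or PPIA and DMSO (2^−ΔΔCt), converted to percent response over a fixed ΔCt window; IC50 from 4-parameter fit.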

SMN2 CJ mRNA = test: Gene panel canonical junction qPCR assay, SMN2; type: cell-based; settings: Homo sapiens, larger gene panel, read-out: SMN2 IC50 (decrease in CJ mRNA levels)
Outline: as §1

[1] = system: HiBiT-tagged Target C protein in K562 cells; test: HiBiT protein abundance assay, Target C; type: cell-based, human; settings: HiBiT-modified K562 cells, 24 hours, luminescence
Outline: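 K562 lines with the endogenous target HiBiT-tagged, seeded in IMDM+1% FBS, got a 10-point 3-fold dilution series (top final 10 μM, DMSO ≤0.25%) for 24 hours at 37° C. Lytic LgBiT luminescence was normalized against unmodified-K562 and DMSO-only controls, and IC50 was interpolated at 50% from a four-parameter logistic fit.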

SMILES | IC50 (HTT CJ mRNA) | IC50 (SMN2 CJ mRNA) | IC50 [1]
Cc1cc(-c2cc(=O)n3nc(N4CCN(C)CC4)sc3n2)cc2cn(C)nc12 [Compound 157, 7-(2,7-dimethyl-2H-indazol-5-yl)-2-(4-methylpiperazin-1-yl)-5H-[1,3,4]thiadiazolo[3,2-a]pyrimidin-5-one] | > 10000 nM | > 10000 nM | > 10000 nM
Cc1cn2nc(-c3cn4c(=O)cc(N5CCNC6(CC6)C5)nc4s3)cc(C)c2n1 [Compound 212, 2-(2,8-dimethylimidazo[1,2-b]pyridazin-6-yl)-7-(4,7-diazaspiro[2.5]octan-7-yl)-5H-thiazolo[3,2-a]pyrimidin-5-one] | 1000 to 10000 nM | 1000 to 10000 nM | 1000 to 10000 nM
Cc1cn2cc(-c3cc4ncn(C5CCNCC5)c(=O)c4s3)ncc2n1 [Compound 264] | 1000 to 10000 nM | 100 to 1000 nM | 1000 to 10000 nM
Cc1cn2nc(-c3nc4sc(N5CCNCC5)nc4c(=O)[nH]3)cc2c(C)n1 [Compound 267] | 100 to 1000 nM | 100 to 1000 nM | 100 to 1000 nM
Cc1cc(-c2cc3ncn(C4CCN(C)CC4)c(=O)c3s2)cc2cn(C)nc12 [Compound 237, 6-(2,7-dimethyl-2H-indazol-5-yl)-3-(1-methylpiperidin-4-yl)thieno[3,2-d]pyrimidin-4(3H)-one] | 100 to 1000 nM | < 100 nM | 100 to 1000 nM
Cc1cn2cc(-c3nc4cnn(C5CCNCC5)c(=O)c4s3)nc(C)c2n1 [Compound 812, 2-(2,8-dimethylimidazo[1,2-a]pyrazin-6-yl)-6-(piperidin-4-yl)thiazolo[4,5-d]pyridazin-7(6H)-one] | > 10000 nM | > 10000 nM | 100 to 1000 nM
Cc1cn2cc(-c3cn4c(=O)cc(N5CCNC6(CC6)C5)nc4s3)cc(F)c2n1 [Compound 208, 2-(8-fluoro-2-methylimidazo[1,2-a]pyridin-6-yl)-7-(4,7-diazaspiro[2.5]octan-7-yl)-5H-thiazolo[3,2-a]pyrimidin-5-one] | 1000 to 10000 nM | 1000 to 10000 nM | 1000 to 10000 nM
Cc1cn2cc(-c3nn4c(=O)cc(N5CCN(C)CC5)nc4s3)cc(F)c2n1 [Compound 217, 2-(8-fluoro-2-methylimidazo[1,2-a]pyridin-6-yl)-7-(4-methylpiperazin-1-yl)-5H-[1,3,4]thiadiazolo[3,2-a]pyrimidin-5-one] | 1000 to 10000 nM | 1000 to 10000 nM | 1000 to 10000 nM
Cc1cn2cc(-c3cc4ncn(C5CCCNCC5)c(=O)c4s3)cc(F)c2n1 (stereo not drawn) [Compound 275, 3-(azepan-4-yl)-6-{8-fluoro-2-methylimidazo[1,2-a]pyridin-6-yl}thieno[3,2-d]pyrimidin-4-one] | 100 to 1000 nM | < 100 nM | 100 to 1000 nM
Cc1nc(-c2nc3cnn(C4CCNCC4)c(=O)c3s2)cc2cn(C)nc12 [Compound 811] | 1000 to 10000 nM | 100 to 1000 nM | > 10000 nM
Cc1cn2cc(-c3cc4ncn([C@H]5CCN[C@@H](C)C5)c(=O)c4s3)cc(F)c2n1 (relative stereo) [Compound 278, 6-{8-fluoro-2-methylimidazo[1,2-a]pyridin-6-yl}-3-[(cis)-2-methylpiperidin-4-yl]thieno[3,2-d]pyrimidin-4-one hydrochloride] | 100 to 1000 nM | < 100 nM | 100 to 1000 nM
Cc1cn2cc(-c3cc4ncn(C5CCNC5)c(=O)c4s3)cc(F)c2n1 (stereo not drawn) [Compound 270, 6-{8-fluoro-2-methylimidazo[1,2-a]pyridin-6-yl}-3-(pyrrolidin-3-yl)thieno[3,2-d]pyrimidin-4-one] | 100 to 1000 nM | 100 to 1000 nM | 100 to 1000 nM
Cc1cn2cc(-c3cn4c(=O)cc(N5CCNCC5)nc4s3)cc(F)c2n1 [Compound 213, 2-(8-fluoro-2-methylimidazo[1,2-a]pyridin-6-yl)-7-(piperazin-1-yl)-5H-thiazolo[3,2-a]pyrimidin-5-one] | > 10000 nM | 1000 to 10000 nM | > 10000 nM
Cc1nc(-c2cc3ncn(C4CCNCC4)c(=O)c3s2)cc2cn(C)nc12 [Compound 271] | 1000 to 10000 nM | < 100 nM | 1000 to 10000 nM
Cc1nc(-c2nc3ncn(C4CCNCC4)c(=O)c3s2)cc2cn(C)nc12 [Compound 251, 2-(2,7-dimethyl-2H-pyrazolo[3,4-c]pyridin-5-yl)-6-(piperidin-4-yl)thiazolo[4,5-d]pyrimidin-7(6H)-one] | 1000 to 10000 nM | 100 to 1000 nM | > 10000 nM
Cn1cc2cc(-c3nc4ncn(C5CCNCC5)c(=O)c4s3)c(O)cc2n1 [Compound 253, 2-(6-hydroxy-2-methyl-2H-indazol-5-yl)-6-(piperidin-4-yl)thiazolo[4,5-d]pyrimidin-7(6H)-one, hydrochloride] | 1000 to 10000 nM | 100 to 1000 nM | 1000 to 10000 nM

SMILES | IC50 (HTT CJ mRNA) | IC50 (SMN2 CJ mRNA) | IC50 [1]
Cc1cn2cc(-n3cnc4nc(N5CCN(C)CC5)sc4c3=O)cc(C(F)(F)F)c2n1 [Compound 230, 6-(2-methyl-8-(trifluoromethyl)imidazo[1,2-a]pyridin-6-yl)-2-(4-methylpiperazin-1-yl)thiazolo[4,5-d]pyrimidin-7(6H)-one] | > 10000 nM | > 10000 nM | > 10000 nM
Cc1cn2cc(-n3cnc4nc(N5CCN(C)CC5)sc4c3=O)cc(F)c2n1 [Compound 228, 6-(8-fluoro-2-methylimidazo[1,2-a]pyridin-6-yl)-2-(4-methylpiperazin-1-yl)thiazolo[4,5-d]pyrimidin-7(6H)-one] | 1000 to 10000 nM | 1000 to 10000 nM | 1000 to 10000 nM
Cc1cn2nc(-c3cc4ncn(C5CCNCC5)c(=O)c4s3)cc2c(C)n1 [Compound 262] | 100 to 1000 nM | 100 to 1000 nM | 100 to 1000 nM
Cc1cn2cc(-c3cc4ncn([C@H]5CCN[C@H](C)C5)c(=O)c4s3)cc(F)c2n1 (relative stereo) [Compound 277, 6-{8-fluoro-2-methylimidazo[1,2-a]pyridin-6-yl}-3-[(trans)-2-methylpiperidin-4-yl]thieno[3,2-d]pyrimidin-4-one] | 100 to 1000 nM | < 100 nM | 100 to 1000 nM
Cc1cn2nc(-c3nc4sc(N5CCN(C)CC5)nc4c(=O)[nH]3)cc2c(C)n1 [Compound 268] | > 10000 nM | 100 to 1000 nM | > 10000 nM
Cc1cn2cc(-c3nc4sc(C5CCN(C)CC5)cc4c(=O)[nH]3)cc(F)c2n1 [Compound 256, 2-(8-fluoro-2-methylimidazo[1,2-a]pyridin-6-yl)-6-(1-methylpiperidin-4-yl)thieno[2,3-d]pyrimidin-4(3H)-one] | > 10000 nM | 1000 to 10000 nM | > 10000 nM
Cc1cn2cc(N3CCc4cc(C5CCNCC5)sc4C3=O)cc(F)c2n1 [Compound 800, 6-[8-fluoro-2-methylimidazo[1,2-a]pyridin-6-yl]-2-(piperidin-4-yl)-4H,5H-thieno[2,3-c]pyridin-7-one] | > 10000 nM | > 10000 nM | > 10000 nM
Cc1cn2cc(-c3cc4ccn(C5CCN(C)CC5)c(=O)c4s3)cc(F)c2n1 [Compound 808, 2-(8-fluoro-2-methylimidazo[1,2-a]pyridin-6-yl)-6-(1-methylpiperidin-4-yl)thieno[2,3-c]pyridin-7(6H)-one] | 100 to 1000 nM | < 100 nM | 1000 to 10000 nM
Cc1cc(-c2nn3c(=O)cc(N4CCNCC4)nc3s2)cc2cn(C)nc12 [Compound 206, 2-(2,7-dimethyl-2H-indazol-5-yl)-7-(piperazin-1-yl)-5H-[1,3,4]thiadiazolo[3,2-a]pyrimidin-5-one] | 1000 to 10000 nM | 100 to 1000 nM | 1000 to 10000 nM
Cc1cn2nc(-c3cc4ncn(C5CCN(C)CC5)c(=O)c4s3)cc(C)c2n1 [Compound 239, 6-(2,8-dimethylimidazo[1,2-b]pyridazin-6-yl)-3-(1-methylpiperidin-4-yl)thieno[3,2-d]pyrimidin-4(3H)-one] | 1000 to 10000 nM | < 100 nM | > 10000 nM
Cc1cc(-c2nc3ncn(C4CCN(C)CC4)c(=O)c3s2)cc2cn(C)nc12 [Compound 234, 2-(2,7-dimethyl-2H-indazol-5-yl)-6-(1-methylpiperidin-4-yl)thiazolo[4,5-d]pyrimidin-7(6H)-one] | 100 to 1000 nM | < 100 nM | 100 to 1000 nM
Cc1cn2cc(-n3ccc4cc(C5CCNCC5)sc4c3=O)cc(F)c2n1 [Compound 801, 6-[8-fluoro-2-methylimidazo[1,2-a]pyridin-6-yl]-2-(piperidin-4-yl)thieno[2,3-c]pyridin-7-one] | > 10000 nM | > 10000 nM | > 10000 nM
Cc1cn2nc(-c3cc(=O)n4cc(N(C)C5CC(C)(C)NC(C)(C)C5)sc4n3)cc(C)c2n1 [Compound 205, 7-(2,8-dimethylimidazo[1,2-b]pyridazin-6-yl)-2-(methyl(2,2,6,6-tetramethylpiperidin-4-yl)amino)-5H-thiazolo[3,2-a]pyrimidin-5-one] | 1000 to 10000 nM | 1000 to 10000 nM | 1000 to 10000 nM
Cc1cn2cc(-c3cc4ncn([C@H]5CCNC[C@@H]5F)c(=O)c4s3)cc(F)c2n1 (relative stereo) [Compound 272, trans-6-{8-fluoro-2-methylimidazo[1,2-a]pyridin-6-yl}-3-[3-fluoropiperidin-4-yl]thieno[3,2-d]pyrimidin-4-one] | 1000 to 10000 nM | < 100 nM | 1000 to 10000 nM
Cn1cc2cc(-c3cc4ncn(C5CCNCC5)c(=O)c4s3)c(F)cc2n1 [Compound 258] | 100 to 1000 nM | < 100 nM | 1000 to 10000 nM
